Consider 4 molecules from article PMC12116762, “Topobexin targets the Topoisomerase II ATPase domain for beta isoform-selective inhibition and anthracycline cardioprotection” (Nature Communications, 2025).

The target of data set [1] is T1, recombinant human TOP2A (Homo sapiens, UniProt P11388).
T1 construct: Using recombinant full-length human TOP2A and TOP2B enzymes; YFP (N, cleaved yes); made in house; host or cells: HEK293F
Kind of data set: DNA decatenation assay, recombinant TOP2A. In kind it is biochemical. Conditions: for IC50: enzyme expressed in HEK293F, n=3. The method, then:
The human topoisomerase II decatenation assay was performed to determine the inhibitory effects of BNS-22 and new compounds as previously described with minor modifications[14],[36]. The assay was performed using recombinant human TOP2A or TOP2B generated using the HEK293F YFP-tag expression system as previously described[18],[19],[36]. Briefly, plasmids encoding YFP-TOP2A or YFP-TOP2B were transfected into HEK293F cells (Catalog number 11625019, Thermofisher Scientific), and TOP2 proteins were isolated from cell lysates by anti-YFP nanobody affinity chromatography. After elution by TEV protease cleavage, TOP2 proteins were FPLC purified by sequential cation exchange and size exclusion chromatography. Plasmid encoding TOP2B C88Y was generated by round-the-horn PCR mutagenesis and the sequence was verified by full-plasmid sequencing. Purified TOP2 proteins were stored in a storage buffer containing 20 mM HEPES pH 7.5, 500 mM NaCl, 0.5 mM TCEP, 25% (v/v) glycerol at -80 °C. For decatenation assays, purified TOP2 proteins were incubated with 200 ng kDNA (Topogen) in a reaction buffer containing 50 mM Tris−HCl (pH 8), 100 mM NaCl, 10 mM MgCl2, 0.5 mM DTT, 2 mM ATP, 0.1 mM tris(2-carboxyethyl)phosphine (TCEP), 5% (v/v) glycerol, 70 μg/mL bovine serum albumin, and 1/10 volume of each compound diluted in 10% DMSO (final DMSO concentration 1%) for 40 min at 37 °C. The reaction was then stopped by the addition of gel loading buffer (0.5 volumes of 60% (w/v) glycerol, 60 mM EDTA, 20 mM Tris−HCl (pH 7.5), 0.5 mg/mL bromophenol blue) and the samples were placed on ice. Reaction products were resolved by agarose gel electrophoresis in TBE buffer containing GelRed stain (Biotium). Gels were visualized using an iBright CL1000 (Thermofisher Scientific). Band intensities were quantified using FIJI, and the signal of the treated samples was normalized to the value of the control (untreated sample; 100%) present on the same gel. The normalized signal of three independent measurements was then expressed as mean ± SD. Each presented data point was obtained from distinct sample. Normalized values were plotted as a function of inhibitor concentration to determine IC50 values by nonlinear regression with variable slope using Prism 9 (GraphPad).

Data set [2] deals with neonatal rat ventricular cardiomyocytes (NVCM). Kind of data set: Inherent toxicity (LDH release) in NVCM. In kind it is cell-based. Set-up: key to LDH release (inherent toxicity), mean of independent replicates: % of total LDH activity. As to conditions: for LTC = lowest toxic concentration / LDH release (inherent toxicity), mean of independent replicates: NVCM; for LTC = lowest toxic concentration: compound alone, n=4. Summed up:
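Primary neonatal Wistar rat cardiomyocytes in serum- and pyruvate-free DMEM/F12 were pretreated with compound 3 h, then co-incubated 3 h with DAU (1.2 µM), or without DAU for inherent toxicity, then given a 48 h drug-free follow-up. Medium LDH activity (NAD+ reduction at 340 nm) expressed as % of total LDH.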

Setting [3] is: compound alone 0.01 µM, Suppl.Fig.4.
Setting [4] is: compound alone 0.1 µM, Suppl.Fig.4.
The mark [5] stands for this setting: compound alone 1 µM, Suppl.Fig.4.
The mark [6] stands for this setting: compound alone 10 µM, Suppl.Fig.4.

Values joined by “and” are separate entries in the source; they are usually repeats but may differ in a detail not shown here. Identical values can stand only once.

T1 sequence (P11388 whole entry): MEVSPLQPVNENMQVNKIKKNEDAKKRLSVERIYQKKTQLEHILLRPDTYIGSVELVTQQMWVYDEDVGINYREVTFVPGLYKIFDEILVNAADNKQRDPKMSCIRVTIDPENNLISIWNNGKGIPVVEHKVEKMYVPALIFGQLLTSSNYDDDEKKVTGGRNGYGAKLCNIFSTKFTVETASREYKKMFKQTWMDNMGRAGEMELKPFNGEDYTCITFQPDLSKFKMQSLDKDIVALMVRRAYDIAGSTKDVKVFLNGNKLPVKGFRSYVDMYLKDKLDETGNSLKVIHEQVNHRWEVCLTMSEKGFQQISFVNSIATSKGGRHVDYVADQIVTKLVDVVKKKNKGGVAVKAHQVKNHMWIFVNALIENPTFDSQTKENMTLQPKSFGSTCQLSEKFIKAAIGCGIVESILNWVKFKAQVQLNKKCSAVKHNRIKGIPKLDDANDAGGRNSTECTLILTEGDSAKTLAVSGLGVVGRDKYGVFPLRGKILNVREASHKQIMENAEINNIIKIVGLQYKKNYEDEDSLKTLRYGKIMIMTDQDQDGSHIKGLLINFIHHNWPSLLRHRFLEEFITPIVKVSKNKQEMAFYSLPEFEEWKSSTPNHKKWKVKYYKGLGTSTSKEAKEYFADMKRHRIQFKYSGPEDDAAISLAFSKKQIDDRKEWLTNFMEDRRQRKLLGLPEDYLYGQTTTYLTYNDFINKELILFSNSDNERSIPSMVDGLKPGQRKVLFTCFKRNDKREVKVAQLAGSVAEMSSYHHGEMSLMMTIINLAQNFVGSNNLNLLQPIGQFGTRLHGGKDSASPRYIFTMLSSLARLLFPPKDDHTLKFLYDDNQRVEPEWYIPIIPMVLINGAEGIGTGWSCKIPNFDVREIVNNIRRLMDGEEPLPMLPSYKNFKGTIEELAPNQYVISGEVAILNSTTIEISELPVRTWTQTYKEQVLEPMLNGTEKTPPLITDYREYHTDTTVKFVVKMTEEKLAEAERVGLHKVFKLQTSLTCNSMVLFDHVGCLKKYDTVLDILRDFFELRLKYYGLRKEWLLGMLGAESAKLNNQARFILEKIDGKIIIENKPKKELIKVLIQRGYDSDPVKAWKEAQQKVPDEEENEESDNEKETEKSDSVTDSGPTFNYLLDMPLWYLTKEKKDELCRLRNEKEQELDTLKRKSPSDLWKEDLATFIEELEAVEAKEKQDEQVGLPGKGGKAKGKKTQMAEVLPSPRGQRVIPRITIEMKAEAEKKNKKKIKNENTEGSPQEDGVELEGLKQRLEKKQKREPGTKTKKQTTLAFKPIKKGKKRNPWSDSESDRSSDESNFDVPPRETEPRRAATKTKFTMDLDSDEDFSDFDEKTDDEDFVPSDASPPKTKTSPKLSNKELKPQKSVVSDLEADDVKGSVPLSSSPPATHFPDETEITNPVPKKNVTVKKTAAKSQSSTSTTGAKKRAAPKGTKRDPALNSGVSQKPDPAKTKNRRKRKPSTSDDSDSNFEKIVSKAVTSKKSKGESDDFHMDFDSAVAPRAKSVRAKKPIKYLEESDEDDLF

For the molecule `CCCc1cc(=O)oc2c(C(=O)N3CCCc4ccccc43)c(OCCN3CCN(C)CC3)ccc12` [topobexin (9)], in data set [1] (0.02 μM, independent replicates, read-out: Normalized % TOP2A activity, decatenation), the remaining activity at 0.02 µM turned out to be 87.1%. The remaining activity at 0.313 µM in data set [1] (0.313 μM, independent replicates, read-out: Normalized % TOP2A activity, decatenation) was 96.1%. Also, the remaining activity at 0.625 µM in data set [1] (0.625 μM, independent replicates, read-out: Normalized % TOP2A activity, decatenation) came out at 91.5%. In addition, the IC50 in data set [1] turned out to be 4.8 µM. The “LTC = lowest toxic concentration” value in data set [2] is over 100 µM. In addition, the “LDH release, mean” value in data set [2] (compound 100 µM alone) is given as 16.49 % of total LDH. Further, the LDH release in data set [2] (compound 100 µM alone, independent replicates) is 16.0714 % of total LDH and 14.563 % of total LDH and 13.722 % of total LDH and 21.6038 % of total LDH. In addition, the “LDH release (inherent toxicity), mean of independent replicates” value (shortened to “LDH release (inherent toxicity), mean”) in data set [2] (compound alone 0.01 µM, Suppl.Fig.6c) worked out at 15.0001; in data set [2] (compound alone 0.1 µM, Suppl.Fig.6c) it was 13.7512; in data set [2] (compound alone 1 µM, Suppl.Fig.6c), 12.2924; in data set [2] (compound alone 10 µM, Suppl.Fig.6c) it was 14.4604; in data set [2] (compound alone 30 µM, Suppl.Fig.6c), 15.0547; in data set [2] (compound alone 100 µM, Suppl.Fig.6c), 16.49.
As for `CCCc1cc(=O)oc2c(C(=O)N3CCCc4ccccc43)c(OCCO)ccc12` [5c], the 50% inhibitory concentration (IC50) in data set [1] worked out at 3.21 µM. The “LTC = lowest toxic concentration” value in data set [2] stood at 100 µM. The “LDH release (inherent toxicity), mean” value in data set [2] (setting [3]) is 14.5952; in data set [2] (setting [4]), 14.7832; in data set [2] (setting [5]), 14.0641; in data set [2] (setting [6]), 18.571; in data set [2] (compound alone 30 µM, Suppl.Fig.4) it was 18.0914; in data set [2] (compound alone 100 µM, Suppl.Fig.4) it was 21.5856.
As to `C[C@@H](CN1CC(=O)NC(=O)C1)N1CC(=O)NC(=O)C1` [dexrazoxane], in data set [1] (0.059 μM, independent replicates, read-out: Normalized % TOP2A activity, decatenation), the remaining activity at 0.059 µM amounted to 112%. The remaining activity at 0.469 µM in data set [1] (0.469 μM, independent replicates, read-out: Normalized % TOP2A activity, decatenation) is 114%. Further, the remaining activity at 0.938 µM in data set [1] (0.938 μM, independent replicates, read-out: Normalized % TOP2A activity, decatenation) came to 94.4%. Besides, the remaining activity at 1.875 µM in data set [1] (1.875 μM, independent replicates, read-out: Normalized % TOP2A activity, decatenation) worked out at 68.7%. For the same molecule, in data set [1] (7.500 μM, independent replicates, read-out: Normalized % TOP2A activity, decatenation), the remaining activity at 7.5 µM amounted to 33.6%. In data set [1], the half-maximal inhibitory concentration (IC50) stood at 3.35 µM.
On to `CCCc1cc(=O)oc2c(C(=O)N3CCCc4ccccc43)c(OC)cc(OC)c12` [BNS-22], for which the “Normalized % TOP2A activity, decatenation” value in data set [1] (0.029 μM, independent replicates) is 129.2% and 104.9% and 108.1%; in data set [1] (0.059 μM, independent replicates), 115.3% and 107.3% and 87.18%; in data set [1] (0.117 μM, independent replicates) it was 112.3% and 85.14% and 77.75%; in data set [1] (0.234 μM, independent replicates), 113.6% and 104.1% and 111.1%; in data set [1] (0.469 μM, independent replicates), 107.6% and 108.2% and 94.85%; in data set [1] (0.938 μM, independent replicates) it was 110.1% and 99.05% and 142.1%. Further, the “Normalized % TOP2A activity, decatenation” value is 103.6% and 97.25% and 87.84% in data set [1] (1.875 μM, independent replicates); 92.41% and 84.64% and 69.95% in data set [1] (3.750 μM, independent replicates); 58.26% and 36.7% and 30.82% in data set [1] (7.500 μM, independent replicates); 19.52% and 10.3% and 12.12% in data set [1] (15.000 μM, independent replicates); 7.598% and 6.508% and 9.979% in data set [1] (30.000 μM, independent replicates). For the same molecule, in data set [1], the IC50 was 6.51 µM. Besides, the “LTC = lowest toxic concentration” value in data set [2] was over 10 µM. The “LDH release (inherent toxicity), mean” value is on record as 12.6739 in data set [2] (setting [3]); 12.9938 in data set [2] (setting [4]); 12.9269 in data set [2] (setting [5]); 14.5033 in data set [2] (compound alone 3 µM, Suppl.Fig.4); 16.9772 in data set [2] (setting [6]).
